Entries after “also recorded” stand apart in the source; their conditions may differ.
What was measured:
[1] = system: mice; experiment: T cell-dependent/mast cell-independent airway inflammation model (OVA with alum); type: in vivo, mouse; conditions: mice immunized with OVA with alum and challenged with OVA
[2] = system: BALB/c mice; experiment: Aspergillus fumigatus allergen-induced airway inflammation model; type: in vivo, mouse; conditions: intranasal 200 ug/50 ul, 30 min before each immunization from the second week
[3] = system: HRF/IgE binding; experiment: Competition ELISA of IgE binding to GST-mHRF-coated wells; set-up: species or system mouse
Experimental: (§1) To identify an inhibitor of HRF/Ig interactions to dissect the extracellular function (═HRF function as a cytokine) separate from the intracellular functions in vivo settings, the major Ig-interacting HRF sequence was studied as a specific inhibitor of HRF/Ig interactions. IgE molecules were incubated in GST-mHRF-coated wells in the presence or absence (−) of the indicated concentrations of competitors, GST-N19, GST-mHRF or mHRF-His6 for 2 hours. After incubation, bound-IgE was detected by incubation with biotinylated anti-mouse IgE mAb, followed by streptavidin-HRP. […] By contrast, none of the shorter mHRF peptides tested (residues 1-6, 1-12, 5-19, and 9-19) inhibited HRF/IgE binding. GST-N19 inhibited HRF/IgG binding as well.

[4] = system: C57BL/6 mice; experiment: OVA-induced mast cell-dependent airway inflammation model; type: in vivo, mouse
Experimental: Mice were sensitized with OVA (10 μg in 0.1 ml saline) at days 0, 7, 14, 21, 28, and 35. Sensitized mice were challenged with OVA (20 μg in 20 μl saline) at days 40, 43 and 46. Some mice were pretreated with GST, GST-N19 (400 μg in PBS), or N19 peptide (40 μg in 2% DMSO-containing PBS) 15 minutes before OVA challenge. Twenty-four hours after the last challenge, lung function in response to methacholine was tested using FlexiVent system (SCIREQ Scientific Respiratory Equipment). Mice were sacrificed and plasma, BAL fluids, and lung tissues were collected. Cells in BAL fluids were counted, and specific cell numbers were calculated after May-Giemsa staining of Cytospin preparations. Immunofluorescence microscopy was performed on membrane-permeabilized and non-permeabilized lung tissues. For staining of lung tissues by staining of H&E and periodic acid-Schiff (PAS), lung tissues were fixed with formalin and embedded in paraffin. For measurement of cytokine levels in lung tissues, lung homogenates were prepared (Oyoshi et al., Immunol. 120:303 (2007)) and cytokines quantified by ELISA. HRF in lung homogenates and plasma was SDS-PAGE and immunoblotting with anti-HRF Ab (Santa Cruz Biotechnology).
Asthma is a type 2 helper T cell-driven, chronic inflammatory lung disease (Wills-Karp, Annu Rev Immunol 17, 255 (1999)). To study HRF involvement in allergic airway inflammation, an airway inflammation model was utilized, in which mast cells are implicated in amplifying antigen-dependent chronic inflammation (Williams, et al., J Exp Med 192, 455 (Aug. 7, 2000)). C57BL/6 mice were first sensitized with OVA (10 μg) at days 0, 7, 14, 21, 28 and 35. At days 40, 43 and 46, mice were intranasally challenged with OVA (20 μg) or PBS. Some mice were intranasally pretreated with GST or GST-N19 (400 μg) before every OVA challenge. Twenty-four hours after the last challenge, mice were sacrificed and BAL fluids and lung tissues were collected. Lung tissues were homogenized.

[5] = system: CHO-K1 (Chinese hamster ovary cell); conditions: CHO-K1, 3.6 or 36 μM, 2 days
Experimental: (§2) To analyze the effect of GST-N19 on intracellular functions of HRF/TCTP, the indicated cells were cultured in the absence (−) or presence of the indicated concentrations of GST or GST-N19 for 2 days, and live cells were counted in the presence of Trypan blue. […] The usual dose of HRF to stimulate basophils is 1.6-5 μM (Langdon, et al., J Leukoc Biol 84, 1151 (October, 2008)). Apoptosis was induced by growth factor withdrawal, IL-3 depletion, in BMMCs for 3 days and by 800 nM H2O2 in CHO-K1 cells for 2 days, and live cells were counted.

[6] = system: CHO-K1 cells; conditions: 800 nM H2O2, 2 days
Experimental: as §2

[7] = system: WT mice; experiment: IgE/antigen-induced PCA with GST-N19 ear injection; type: in vivo, mouse
Experimental: Mouse ears were first sensitized with 0.5 μg anti-TNP (C38-2 in the right ear and C48-2 in the left ear) IgE. After 24 hours, Evans' blue dye was intravenously (i.v.) injected, and TNP26-BSA (Ag: 0.1 μg) or mHRF-His6 (10 μg) were immediately injected into the ears. The acute (30 minute) reactions were analyzed by measurement of Evans' blue dye leakage. The ear thickness was measured using a micrometer (Mitutoyo) at 0.5, 1, 2, 4, 6, 8, 12, and 24 hours after mHRF-His6challenge. As a negative control, saline was injected into the ears in place of antigen or HRF challenge. IgG-mediated response was performed by sensitization with 2 μg IgG1 (in place of anti-TNP IgE) and challenge with anti-mouse IgG1 Ab (0.6 μg: Southern Biotechnology, in place of TNP26-BSA). Engraftmanet of Kit^W-sh/W-sh mice with BMMCs was performed 6 weeks before study (Nakano, T., et al. J Exp Med 162:1025-1043 (1985)). In some studies, mice were sensitized and stimulated as described above but without Evans blue.
To study HRFs involvement in IgE/antigen-induced PCA reactions, WT mice were overnight sensitized the IgE. Left ears were injected with GST and the right ears were injected with GST-N19, and then TNP26-BSA were injected in both ears. Ear thickness was measured over a 10 hour period. *, **, ***: p<0.05, p<0.01, p<0.001 by Student's t-test. […]

[8] = system: BMMCs; type: cell-based, mouse
[9] = system: HRF/IgG binding; experiment: Inhibition of HRF/IgG binding; set-up: species or system mouse
Experimental: as §1

Q: Which Airway inflammation [1] does the source give for “GST-N19: GST fusion protein encoding the first 19 residues of mHRF; inhibitor of HRF/Ig interactions” here?
A: failed to inhibit; also recorded: does not inhibit

Q: What about the Airway inflammation [2] of the same substance?
A: efficacy of GST-N19 was confirmed; also recorded: inhibits

Q: What about the “Potency of inhibition of IgE binding relative to full-length HRF competitors” value [3] of the same substance?
A: potency similar to that shown by GST-mHRF and mHRF-His6

Q: And the “Inhibition of IgE binding to immobilized GST-mHRF” value ([3]; competitor incubated 2 hours)?
A: inhibited

Q: What about the “Inflammatory cells, particularly eosinophils and neutrophils, in BAL fluids” value ([4]; 400 μg before every OVA challenge) of the same substance?
A: reduced

Q: And the “Inflammatory cells and goblet cell hyperplasia in the lung” value ([4]; H&E and PAS staining)?
A: reduced

Q: And the HRF in plasma ([4]; OVA-immunized/OVA-challenged mice)?
A: reduced

Q: And the Airway inflammation ([4]; intranasal pretreatment before each OVA challenge)?
A: abrogated

Q: What about the “Production of IL-5 in lung tissues” value ([4]; lung homogenates, ELISA) of the same substance?
A: drastically decreased

Q: And the “Production of IL-13 in lung tissues” value ([4]; lung homogenates, ELISA)?
A: drastically decreased; also recorded: suppression

Q: What about the “HRF-reactive IgG levels in plasma” value ([4]; mouse, in vivo) of the same substance?
A: not affected

Q: And the “OVA-specific IgE levels in plasma” value ([4]; mouse, in vivo)?
A: not affected

Q: What about the “OVA-specific IgG1 levels in plasma” value ([4]; mouse, in vivo) of the same substance?
A: not affected

Q: What about the “OVA-specific IgG2a levels in plasma” value ([4]; mouse, in vivo) of the same substance?
A: not affected

Q: What about the “Airway hyper-responsiveness (AHR)” value ([4]; response to methacholine) of the same substance?
A: inhibited

Q: What about the Viability or proliferation [5] of the same substance?
A: did not affect

Q: What about the “Live cells after induced apoptosis” value [6] of the same substance?
A: not affected

Q: What about the “PCA (ear thickness)” value ([7]; HRF-nonreactive IgE-induced PCA) of the same substance?
A: insensitive

Q: And the “Acute reactions and LPR (ear thickness)” value ([7]; HRF-reactive IgE-induced PCA, TNP26-BSA challenge)?
A: significantly reduced

Q: What about the “Effects on mast cell growth and apoptosis” value [8] of the same substance?
A: absence of GST-N19 effects

Q: What about the “Inhibition of HRF/IgG binding” value [9] of the same substance?
A: inhibited
